Assays:
[1] = system: Alzheimer's patients; settings: Rogers, J., et. al., Neurology, 43, 1609, (1993); cited from earlier work
[2] = system: PGE2; assay: Inhibition of eicosanoid (prostaglandin E2) synthesis in vivo, carrageenan air-pouch model in rats; parameters: species or system rat; settings: oral, male rats
Protocol: In this assay, an air-pouch is created in the rat and the PGE2 levels in the air-pouch exudate are measured by enzyme immunoassay. Briefly, male rats were anesthetized using a 60:40 CO2 :O2 mixture and subsequently injected subcutaneously with 20 ml of sterilized air, under aseptic conditions, in the proximal area of the dorsum. This injection of sterile air causes the creation of a subcutaneous "air pouch". The next day, a further 10 ml of sterile air was injected into the previously formed pouch using the same technique. […] Control rats received vehicle alone. After 30 minutes, 5 ml of a 0.5% solution of carrageenan (Sigma, Lambda Type IV) was injected into the air pouch. The rats were euthanized 3 or 6 h after the compound administration. […] The total exudate volume was recorded, and the samples were analyzed for PGE2 and 6-keto PGF1 by ELISA (Titerzyme®, PerSeptive Diagnostics, Boston, Mass.) and TxB2 by radioimmuno assay (New England Nuclear Research, Boston, Mass., Catalog No. NEK-037), according to the manufacturer's directions.
The mean concentrations of PGE2 were calculated for each group. The anti-inflammatory activity of test materials is expressed as the percent inhibition of PGE2 formation in the test group relative to the control group.

[3] = molecular target: T1, COX II (Homo sapiens, UniProt P35354); assay: Inhibition of COX II in vitro (radiometric assay, partially purified enzyme); assay type: biochemical
T1 construct: made in house; baculovirus-infected insect cells according to the cited Barnett et al. 1994 (own knowledge)
T1 sequence (P35354 18-604): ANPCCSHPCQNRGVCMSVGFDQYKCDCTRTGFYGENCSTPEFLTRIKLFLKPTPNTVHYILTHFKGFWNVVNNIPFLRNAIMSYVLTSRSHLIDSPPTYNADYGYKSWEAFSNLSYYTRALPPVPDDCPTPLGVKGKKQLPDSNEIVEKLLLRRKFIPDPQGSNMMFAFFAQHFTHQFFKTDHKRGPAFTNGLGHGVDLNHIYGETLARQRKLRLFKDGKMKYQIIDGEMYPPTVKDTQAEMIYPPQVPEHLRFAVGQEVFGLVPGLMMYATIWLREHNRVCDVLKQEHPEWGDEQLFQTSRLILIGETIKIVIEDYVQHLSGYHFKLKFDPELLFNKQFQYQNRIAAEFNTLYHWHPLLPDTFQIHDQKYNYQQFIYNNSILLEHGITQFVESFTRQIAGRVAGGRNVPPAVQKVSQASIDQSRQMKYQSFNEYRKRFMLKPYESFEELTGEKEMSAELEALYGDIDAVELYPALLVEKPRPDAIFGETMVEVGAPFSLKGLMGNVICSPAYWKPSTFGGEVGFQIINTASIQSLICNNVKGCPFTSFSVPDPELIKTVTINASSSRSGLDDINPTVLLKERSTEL
Protocol: (§1) The COX I and COX II inhibitory activity of compounds of this invention in vitro was determined using partially purified COX I and COX II enzymes, prepared as described in J. Barnett et. al., Biochim. Biophys.
(§2) COX I and COX II samples were diluted with Tris-HCl buffer (SOmM Tris-HCl, pH 7.9) containing 2 mM EDTA and 10% glycerol and reconstituted by incubating first with 2 mM phenol for 5 minutes and then with 1 micromolar hematin for an additional 5 minutes. 125 μl of the reconstituted COX I or COX II enzyme were preincubated for 10 minutes at room temperature in a shaking water bath with the compounds of the invention dissolved in 2-15 μl of DMSO or the carrier vehicles (control samples). The enzyme reaction was initiated by adding 25 μl of 1-[14 C]arachidonic acid (80,000-100,000 cpm/tube; 20 micromolar final concentration) and the reaction was allowed to continue for an additional 45 seconds. The reaction was terminated by adding 100 μl of 2N HCl and 750 μl water. An aliquot (950 μl) of the reaction mixture was loaded onto a 1 ml C18 Sep-Pak column (J. T. Baker, Phillipsburg, N.J.) which had been previously washed with 2-3 ml methanol and equilibrated with 5-6 ml distilled water. Oxygenated products were quantitatively eluted with 3 ml of acetonitrile/water/acetic acid (50:50:0.1, v/v) and the radioactivity in the eluate determined in a scintillation counter.

[4] = system: carrageenan-induced paw edema; assay: Inhibition of carrageenan-induced paw edema in the rat; assay type: in vivo; settings: oral, female rats
Protocol: The anti-inflammatory activity of compounds of this invention was determined by measuring the inhibition of carrageenan-induced paw edema in the rat, using a modification of the method described in Winter C. A. et al., "Carrageenan-Induced Edema in Hind Paw of the Rat as an Assay for Anti-inflammatory Drugs" Proc. Soc. Exp. Biol. Med. 111, 544-547, (1962). This assay has been used as a primary in vivo screen for anti-inflammatoryactivity of most NSAIDs, and is considered predictive of human efficacy. Briefly, test materials were administered orally to female rats in a volume of 1 ml prepared as solutions or suspensions in an aqueous vehicle containing 0.9% sodium chloride, 0.5% sodium carboxymethyl-cellulose, 0.4% polysorbate 80, 0.9% benzyl alcohol and 97.3% distilled water. Control rats received vehicle alone. After 1 h 0.05 ml of a 0.5% solution of Carrageenan (Type IV Lambda, Sigma Chemical Co.) in 0.9% saline was injected into the subplantar region of the right hind paw. Three hours later the rats were euthanized in a carbon dioxide atmosphere; hind paws were removed by severing at the tatso-crural joint; and the left and right paws were weighed. The increase in weight of the right paw over the left paw was obtained for each animal and the mean increases were calculated for each group. The anti-inflammatory activity of the test materials is expressed as the percent inhibition of the increase in hind paw weight of the test group relative to the vehicle dosed control group.
The anti-inflammatory activities (expressed as % inhibition) of some of the compounds of the invention were: […]

[5] = molecular target: T2, COX I (Homo sapiens, UniProt P23219); assay: Inhibition of COX I in vitro (radiometric assay, partially purified enzyme); assay type: biochemical
T2 construct: made in house; baculovirus-infected insect cells according to the cited Barnett et al. 1994 (own knowledge)
T2 sequence (P23219 24-599): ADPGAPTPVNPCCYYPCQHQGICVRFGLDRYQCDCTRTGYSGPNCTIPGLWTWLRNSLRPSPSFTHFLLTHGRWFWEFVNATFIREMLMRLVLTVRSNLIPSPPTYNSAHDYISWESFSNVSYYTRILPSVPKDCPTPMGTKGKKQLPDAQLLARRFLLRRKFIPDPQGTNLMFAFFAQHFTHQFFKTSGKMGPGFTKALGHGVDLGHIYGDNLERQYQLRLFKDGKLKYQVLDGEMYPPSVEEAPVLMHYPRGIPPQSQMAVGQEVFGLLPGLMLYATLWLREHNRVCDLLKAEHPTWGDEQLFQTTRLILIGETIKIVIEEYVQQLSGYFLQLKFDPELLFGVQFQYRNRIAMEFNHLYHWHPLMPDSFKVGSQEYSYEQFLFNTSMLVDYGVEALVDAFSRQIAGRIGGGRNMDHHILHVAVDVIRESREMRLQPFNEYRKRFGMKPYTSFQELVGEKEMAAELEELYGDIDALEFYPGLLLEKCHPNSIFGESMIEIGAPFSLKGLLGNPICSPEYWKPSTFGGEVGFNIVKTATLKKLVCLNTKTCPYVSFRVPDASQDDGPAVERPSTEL
Protocol: as §1, §2

IC50 [3] [µM]	IC50 [5] [µM]	SMILES	% Inhibition of paw edema ([4]; 30 mg/Kg) [%]	other results
		COc1ccc2c(c1)c(CC(=O)O)c(C)n2C(=O)c1ccc(Cl)cc1 [Indomethacin, reference compound]		inhibition of cognitive decline of Alzheimer's patients [1]: inhibit the cognitive decline of Alzheimer's patients; % Inhibition of air pouch PGE2 formation ([2]; 2-5 mg/Kg): > 70%
0.51	20	COc1ccc2cc(S(N)(=O)=O)ccc2c1C(=O)c1ccc(F)cc1 [compound 1, 5-(4-fluorobenzoyl)-6-methoxy-2-naphthalenesulfonamide]		% Inhibition of paw edema ([4]; 10 mg/Kg): 29.94%; % Inhibition of air pouch PGE2 formation ([2]; 10 mg/Kg): 92%
0.84	2.8	COc1ccc2cc(S(N)(=O)=O)ccc2c1C(=O)c1ccc(C)cc1 [compound 4, 5-(4-methylbenzoyl)-6-methoxy-2-naphthalenesulfonamide]		% Inhibition of paw edema ([4]; 10 mg/Kg): 26.41%; % Inhibition of air pouch PGE2 formation ([2]; 10 mg/Kg): 74.6%
0.56	0.46	CCOc1ccc2cc(S(N)(=O)=O)ccc2c1C(=O)c1ccc(F)cc1 [compound 5]	27.49	
0.076	47.7	COc1ccc2cc(S(N)(=O)=O)ccc2c1C(=O)c1ccccc1F [compound 14, 5-(2-fluorobenzoyl)-6-methoxy-2-naphthalenesulfonamide]		% Inhibition of air pouch PGE2 formation ([2]; 10 mg/Kg): 58.8%
0.68	62.5	COc1ccc2cc(S(N)(=O)=O)ccc2c1C(=O)c1cccc(F)c1 [compound 15, 5-(3-fluorobenzoyl)-6-methoxy-2-naphthalenesulfonamide]		
		COc1ccc2cc(S(N)(=O)=O)ccc2c1C(=O)c1ccccc1Br [compound 17]	19.56	
0.45	6	COc1ccc2cc(S(N)(=O)=O)ccc2c1C(=O)c1ccc(F)cc1F [compound 20]	33.85	% Inhibition of air pouch PGE2 formation ([2]; 10 mg/Kg): 100%
		COc1ccc2cc(S(N)(=O)=O)ccc2c1C(=O)c1ccccc1 [compound 23, 5-benzoyl-6-methoxy-2-naphthalenesulfonamide]		% Inhibition of air pouch PGE2 formation ([2]; 10 mg/Kg): 70.7%
2	40.9	COc1ccc2cc(S(N)(=O)=O)ccc2c1C(=O)c1ccc(F)cc1C(F)(F)F [compound 42]		
0.7	0.9	N#Cc1ccc2cc(S(N)(=O)=O)ccc2c1C(=O)c1ccc(F)cc1 [compound 64, 5-(4-fluorobenzoyl)-6-cyano-2-naphthalenesulfonamide]		% Inhibition of paw edema ([4]; 6 mg/Kg): 30%; % Inhibition of air pouch PGE2 formation ([2]; 0.5 mg/Kg): 50%
0.7	300	Cc1ccc2cc(S(N)(=O)=O)ccc2c1C(=O)c1ccc(F)cc1 [compound 65, 5-(4-fluorobenzoyl)-6-methyl-2-naphthalenesulfonamide]		% Inhibition of paw edema ([4]; 12 mg/Kg): 30%; % Inhibition of air pouch PGE2 formation ([2]; 2 mg/Kg): 50%
0.3	100	NS(=O)(=O)c1ccc2c(C(=O)c3ccc(F)cc3)c(Cl)ccc2c1 [compound 66, 5-(4-fluorobenzoyl)-6-chloro-2-naphthalenesulfonamide]		% Inhibition of paw edema ([4]; 12 mg/Kg): 30%; % Inhibition of air pouch PGE2 formation ([2]; 1 mg/Kg): 50%
0.92	90.8	COc1ccc2cc(S(C)(=O)=O)ccc2c1C(=O)c1ccc(F)cc1 [compound 91, 5-(4-fluorobenzoyl)-6-methoxy-2-methylsulfonylnaphthalene]		% Inhibition of paw edema ([4]; 10 mg/Kg): 29.48%; % Inhibition of air pouch PGE2 formation ([2]; 30 mg/Kg): 58.1%
5.9	646	CS(=O)(=O)c1ccc2c(C(=O)c3ccc(F)cc3)c(O)ccc2c1 [compound 92, 5-(4-fluorobenzoyl)-6-hydroxy-2-methylsulfonylnaphthalene]	19.88	
7.84	436	CS(=O)(=O)c1ccc2c(C(=O)c3ccccc3)c(O)ccc2c1 [compound 93, 5-benzoyl-6-hydroxy-2-methylsulfonylnaphthalene]	6.25	
2.43	805	COc1ccc2cc(S(C)(=O)=O)ccc2c1C(=O)c1ccccc1 [compound 94, 5-benzoyl-6-methoxy-2-methylsulfonylnaphthalene]		% Inhibition of air pouch PGE2 formation ([2]; 10 mg/Kg): 17.6%
2.73	1000	CS(=O)(=O)c1ccc2c(C(=O)c3ccc(F)cc3)cccc2c1 [compound 95, 5-(4-fluorobenzoyl)-2-methylsulfonylnaphthalene]	15.5	
0.8	> 100	CS(=O)(=O)c1ccc2c(C(=O)c3ccc(F)cc3)c(C#N)ccc2c1 [compound 96, 5-(4-fluorobenzoyl)-6-cyano-2-methylsulfonylnaphthalene]	38	% Inhibition of air pouch PGE2 formation ([2]; 1 mg/Kg): 90%
0.8	> 100	CS(=O)(=O)c1ccc2c(C(=O)c3ccccc3)c(C#N)ccc2c1 [compound 97, 5-benzoyl-6-cyano-2-methylsulfonylnaphthalene]	40	% Inhibition of air pouch PGE2 formation ([2]; 3 mg/Kg): 90%
0.5	> 100	CS(=O)(=O)c1ccc2c(C(=O)c3ccccc3F)c(C#N)ccc2c1 [compound 99, 5-(2-fluorobenzoyl)-6-cyano-2-methylsulfonylnaphthalene]		% Inhibition of paw edema ([4]; 10 mg/Kg): 38%; % Inhibition of air pouch PGE2 formation ([2]; 3 mg/Kg): 86%
0.25	> 100	CS(=O)(=O)c1ccc2c(C(=O)c3ccc(Cl)cc3)c(Cl)ccc2c1 [compound 100]		% Inhibition of air pouch PGE2 formation ([2]; 3 mg/Kg): 63%
1.5	97	COc1ccc2cc(S(C)(=O)=O)ccc2c1C(=O)c1ccc(C)cc1 [compound 103]		
0.57	93	CS(=O)(=O)c1ccc2c(C(=O)c3ccc(Cl)cc3)c(C#N)ccc2c1 [compound 104, 5-(4-chlorobenzoyl)-6-cyano-2-methylsulfonylnaphthalene]	33	% Inhibition of air pouch PGE2 formation ([2]; 1 mg/Kg): 76.5%

— patent US5962531A, “5-aroylnaphthalene derivatives as anti-inflammatory agents” (Syntex (U.S.A.) Inc., priority 1998, dated 1999)
